The results in this text go back to ChEMBL document CHEMBL1201862, “PubChem BioAssay data set” (2004).

Each structure is given as a SMILES string.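 Cultured in 96-well plates, cells were exposed to test compound for 48 hours across five concentrations. GI50 = concentration required for 50% inhibition of growth.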 The source made the active and inactive calls. No stated cut-off is given here; in the data, active = GI50 up to about 1.1 µM and inactive = higher.

Holding throughout (assay): NCI tumour cell line growth inhibition, 48 h
Assay [1] concerns ACHN.
Assay [2] relates to COLO 205.
Assay [3] concerns UACC-257.
For assay [4], the system named is HOP-62.
Assay [5] deals with EKVX.
Assay [6] has as its system OVCAR-5.
Assay [7] relates to SNB-19.
The test system of assay [8] is SR.
In assay [9] the test system is HCT-15.
For assay [10], the system named is Malme-3M.
Assay [11] relates to K562.
Assay [12] relates to A549.
For assay [13], the system named is HL-60.
The subject of assay [14] is SW-620.
In assay [15] the test system is SN12C.

`CC(=O)Nc1ccc(C2CC(c3ccc([N+](=O)[O-])cc3)=Nc3ccccc3S2)cc1` (centres undefined): the GI50 was 16.6 µM (inactive) in assay [1]; 36.8 µM (inactive) in [2]; 15.7 µM (inactive) in assay [3]; 17.1 µM (inactive) in [4]; 36.8 µM (inactive) in [5]; 22.2 µM (inactive) in assay [6]. Further, the GI50 in assay [7] is 22.7 µM (inactive); in assay [8], 12.9 µM (inactive); in assay [9] it was 17.1 µM; in [10] it was 18.3 µM (inactive); in [11], 4.73 µM (inactive); in [12] it was 20.6 µM (inactive). For the same compound, the GI50 in assay [13] is 21.3 µM (inactive); in [14], 16.8 µM (inactive); in assay [15], 16.6 µM (inactive).
`CC(=O)c1cccc(NC(=O)C(=O)C(C2OC(=O)c3ccccc32)[N+](=O)[O-])c1` (centres undefined): the GI50 in [1], in assay [2], in assay [3], in assay [4], in assay [5] and in [6] was > 100 µM (inactive) in each case. Besides, the GI50 in [7] is > 100 µM (inactive); in assay [8], > 100 µM (inactive); in [9] it was greater than 100 µM; in assay [10], > 100 µM (inactive); in [11] it was > 100 µM (inactive); in assay [12], > 100 µM (inactive). Moreover, the GI50 in [13], in assay [14] and in assay [15] was > 100 µM (inactive) in each case.
Regarding `Cc1ccc2[nH]c(=O)c(C(C#N)c3ccccc3)nc2c1` (centres undefined), the GI50 was 50.9 µM (inactive) in assay [1]; 27 µM (inactive) in assay [2]; 59.8 µM (inactive) in [3]; > 100 µM (inactive) in [4]; 30.5 µM (inactive) in assay [5]; 55.3 µM (inactive) in assay [6]. In addition, the GI50 was 27.4 µM (inactive) in [7]; 71.3 µM (inactive) in assay [8]; 31.4 µM in [9]; 45.2 µM (inactive) in assay [10]; 47.9 µM (inactive) in assay [11]; 35.5 µM (inactive) in assay [12]. Besides, the GI50 was 43.8 µM (inactive) in assay [14] and 49.5 µM (inactive) in assay [15].
In the case of `O=C(CSc1nnc(-c2ccc(/N=C\c3ccc(Cl)cc3)cc2)o1)Nc1cccc(Cl)c1`, the GI50 in [1], in assay [2], in [3], in assay [4], in assay [5] and in assay [7] was > 100 µM (inactive) throughout. In addition, the GI50 in [8] is > 100 µM (inactive); in assay [9] it was greater than 100 µM; in assay [10], > 100 µM (inactive); in assay [11], > 100 µM (inactive); in [12], > 100 µM (inactive); in assay [13] it was > 100 µM (inactive). For the same compound, the GI50 in [14] and in assay [15] was > 100 µM (inactive) throughout.
As for `Cc1ccccc1N1C(=O)/C(=C/c2ccc(N(CCC#N)CCC#N)cc2)N=C1c1cc([N+](=O)[O-])ccc1Cl`, the GI50 in assay [1] was > 100 µM (inactive); in assay [2], 18.8 µM (inactive); in [3], > 100 µM (inactive); in assay [4], 25.6 µM (inactive); in assay [6], 42.1 µM (inactive); in [7] it was > 100 µM (inactive). In addition, the GI50 in assay [8] is 7.19 µM (inactive); in assay [9] it was greater than 100 µM; in assay [10], > 100 µM (inactive); in [11] it was 35.8 µM (inactive); in assay [13], 35 µM (inactive); in assay [14] it was > 100 µM (inactive). Moreover, the GI50 in assay [15] was > 100 µM (inactive).
With `N#Cc1c(N)oc2cc3c(C#N)c(N)oc3cc12`, the GI50 in assay [1], in [2], in assay [3], in assay [4], in [5] and in assay [6] was > 100 µM (inactive) each time. Further, the GI50 is > 100 µM (inactive) in [7]; greater than 100 µM in assay [9]; > 100 µM (inactive) in [10]; > 100 µM (inactive) in assay [11]; > 100 µM (inactive) in [12]; > 100 µM (inactive) in assay [13]. The GI50 in assay [14] and in assay [15] was > 100 µM (inactive) throughout.
Consider `S=C(Nc1ccccc1)N(/N=C/C=C/c1ccccc1)c1nnc(-c2ccccc2)c(-c2ccccc2)n1`, for which the GI50 is 60.4 µM (inactive) in assay [1]; > 100 µM (inactive) in assay [2]; 38.9 µM (inactive) in assay [3]; 78.2 µM (inactive) in assay [4]; 45.4 µM (inactive) in assay [5]; > 100 µM (inactive) in [6]. Moreover, the GI50 in assay [7] is > 100 µM (inactive); in [9] it was 82.2 µM; in assay [10], 57.7 µM (inactive); in [11], 36.6 µM (inactive); in assay [12] it was 38.6 µM (inactive); in assay [13], 22.4 µM (inactive). Also, the GI50 in assay [14] and in assay [15] was > 100 µM (inactive) in each case.
For the compound `COC(=O)C1=C(O)c2cc(OC)c(OC)c(OC)c2C(c2ccc3c(c2)OCO3)[C@@H]1C(=O)OC` (some centres undefined), the GI50 in [1] was 4.74 µM (inactive); in assay [2], 2.24 µM (inactive); in assay [3], 5.81 µM (inactive); in assay [4], 5.53 µM (inactive); in assay [5], 25.2 µM (inactive); in assay [6] it was > 100 µM (inactive). Moreover, the GI50 in [8] was 3.66 µM (inactive); in assay [9] it was 7.1 µM; in assay [10], 3.44 µM (inactive); in [11], 3.9 µM (inactive); in [12] it was 4.68 µM (inactive); in assay [13] it was 1.74 µM (inactive). Further, the GI50 was 2.22 µM (inactive) in assay [14] and 3.68 µM (inactive) in [15].
Consider `CCN(CC)CCCC(C)NC(=O)c1ccc2c(c1)C(=O)c1ccccc1C2=O` (centres undefined), for which the GI50 was 18.1 µM (inactive) in assay [1]; 8.38 µM (inactive) in assay [2]; 11.9 µM (inactive) in [3]; 27.2 µM (inactive) in assay [4]; 21.3 µM (inactive) in assay [5]; 18.9 µM (inactive) in assay [6]. Also, the GI50 in [7] is 21.6 µM (inactive); in assay [8], 20.7 µM (inactive); in assay [9] it was 17.9 µM; in assay [10], 12.9 µM (inactive); in assay [11] it was 18.3 µM (inactive); in assay [12], 21.7 µM (inactive). Further, the GI50 in assay [13] is 13.5 µM (inactive); in assay [14], 13.6 µM (inactive); in assay [15], 18.1 µM (inactive).
On to `Cn1nc(-c2ccccc2)c(C(=O)/C=C/c2ccccc2)c(N2CCOCC2)c1=O`, for which the GI50 in assay [1] was 20 µM (inactive); in assay [2], 19.5 µM (inactive); in [4], 37.2 µM (inactive); in assay [5], > 10 µM (inactive); in assay [7], > 10 µM (inactive); in assay [9] it was 16.7 µM. Further, the GI50 was 17.9 µM (inactive) in [11]; 20.3 µM (inactive) in assay [12]; 12.8 µM (inactive) in assay [13]; 28.9 µM (inactive) in [14]; 21.4 µM (inactive) in assay [15].
With `O=C(O)C(=O)/C=C\c1ccc(Cl)cc1`, the GI50 in assay [1], in [2], in assay [3], in assay [4], in [5] and in [6] was > 100 µM (inactive) each time. The GI50 was > 100 µM (inactive) in assay [7]; 51.6 µM (inactive) in assay [8]; greater than 100 µM in [9]; > 100 µM (inactive) in [10]; > 100 µM (inactive) in assay [11]; > 100 µM (inactive) in assay [12]. The GI50 in assay [13] is > 100 µM (inactive); in [14] it was 10.6 µM (inactive); in assay [15] it was > 100 µM (inactive).
Take `O=c1c2cc(-c3ccccc3)sc2nc2sc(-c3ccccc3)nn12`: the GI50 in [2] was > 100 µM (inactive); in [3], > 100 µM (inactive); in [4], 85.3 µM (inactive); in [5] it was > 100 µM (inactive); in assay [6], > 100 µM (inactive); in [7] it was > 100 µM (inactive). Also, the GI50 was > 100 µM (inactive) in [8]; greater than 100 µM in assay [9]; > 100 µM (inactive) in assay [10]; > 100 µM (inactive) in assay [11]; > 100 µM (inactive) in [12]; > 100 µM (inactive) in assay [13]. Besides, the GI50 in [14] and in assay [15] was > 100 µM (inactive) in each case.
`OC1c2ccccc2C2C(O)c3ccccc3C12` (centres undefined): the GI50 in assay [1], in [2], in [3], in [4], in [5] and in assay [6] was > 100 µM (inactive) in each case. The GI50 in [9] is greater than 100 µM; in assay [10] it was > 100 µM (inactive); in assay [11], > 100 µM (inactive); in [12] it was > 100 µM (inactive); in assay [13], > 100 µM (inactive); in assay [14], > 100 µM (inactive). In addition, the GI50 in assay [15] was > 100 µM (inactive).
As to `O=[N+]([O-])c1cc(Cl)ccc1OCc1ccccc1`, the GI50 in [1] is 51.4 µM (inactive); in assay [2] it was > 100 µM (inactive); in assay [3], 45.3 µM (inactive); in assay [4] it was 52 µM (inactive); in assay [5] it was 27.2 µM (inactive); in assay [8], 26.4 µM (inactive). Besides, the GI50 in [9] is 67 µM; in assay [10] it was 99.3 µM (inactive); in assay [11], 42.7 µM (inactive); in assay [12], 26.2 µM (inactive); in assay [13] it was 28.4 µM (inactive); in assay [14], > 100 µM (inactive). Moreover, the GI50 in [15] was > 100 µM (inactive).
